Read-outs that look alike come from different tables or passages of the source.
Legend:
SULT1A3 [1] = target: T1, SULT1A3 (Homo sapiens, UniProt P0DMM9); experiment: Equilibrium binding studies, SULT1A3 intrinsic fluorescence titration; parameters: Wild-type and mutant SULT1A3 coding regions were inserted into a pGEX-6P expression vector; N-His/GST/MBP triple-tag (N, cleaved yes); made in house; host or cells: E. coli BL21(DE3)
Description: 4-Tam binding affinities were determined in the absence and presence of saturating PAP. Binding was monitored via ligand-induced changes in SULT1A3 intrinsic florescence (λex=290 nm, λem=340 nm). Fluorescence intensities are normalized relative to [4-Tam]=0. Each data-point is the average of two independent determinations. Conditions: SULT (150 nM, active sites), PAP (0 or 0.50 mM), KPO4 (50 mM), pH 7.5, 25±2° C. The line through the data represents the least-squares best fit to a model that assumes a binding stoichiometry of one 4-Tam per subunit.
Equilibrium Binding Studies. In all cases, ligand binding to SULT1A3 was monitored via changes in the intrinsic fluorescence of the enzyme (λex=290 nm, λem=340 nm). Conditions: SULT (50 nM, active sites), KPO4 (50 mM), pH 7.5, 25±2° C. Titrations were performed in triplicate. Data were averaged and least-squares fit using a model that assumes a single binding site per monomer (29-31). Ligand concentration was varied from 0.10-40×Kd.
As is seen in Eq. 6, Kiso and kcat ratios approach equivalence as Kiso becomes >>1. To assess the extent to which this equivalence holds for SULT1A3, Kiso values were determined as described previously (29-33). In short—As nucleotide binds and the cap closes, a pore forms at the acceptor-binding site. The affinity of an acceptor that is too large to pass through the pore is diminished by the presence of nucleotide, which fosters cap closure. At saturating nucleotide, the apparent affinity, Kapp, of such acceptors for the fully cap-closed enzyme is given by Equation 7 (29-33), where Kd is the affinity for the cap-open (nucleotide-free) form of the enzyme. Kapp=Kd×(1+Kiso) (7) Kapp and Kd were obtained by fitting titrations that monitor changes in SULT1A3 intrinsic fluorescence as a function of the concentration of 4-hydroxytamoxifen, a large acceptor (29) (see, FIG. 2). Titrations were performed at 0 and saturating PAP (0.50 mM, 17×Kd).

SULT1A3 [2] = target: T1, SULT1A3; experiment: SULT1A3 inhibition studies, 1-HP initial-rate fluorescence assay; type: biochemical; parameters: Wild-type and mutant SULT1A3 coding regions were inserted into a pGEX-6P expression vector; N-His/GST/MBP triple-tag (N, cleaved yes); made in house; host or cells: E. coli BL21(DE3); inhibition: dose or concentration left out as unconfirmed; conditions: for inhibition of SULT1A3 (in words): Ki could not be determined
Description: The initial rates of SULT catalyzed 1-HP sulfonation are plotted as a function of inhibitor concentration, and are normalized relative to [inhibitor]=0. Enzyme activity was monitored by the sulfonation dependent change in 1-HP fluorescence (λex=325 nm, λem=370 nm). Less than 5% of the concentration-limiting substrate converted at the reaction endpoint was consumed during initial-rate measurements. Each point is the average of three independent determinations. Conditions: SULT (20 nM, active sites), PAPS (0.50 mM, 17×Km), 1-HP (5.0 μM, 61×Km), KPO4 (50 mM), pH 7.5, 25±2° C.
(§1) Initial-Rate Studies. Initial-rate parameters for the labeled or mutant SULT1A3 constructs were determined using a previously described 1-HP assay (25). Briefly, reactions were initiated by addition of PAPS (0.50 mM, 17×Km) to a solution containing enzyme (20 nM, active sites), 1-HP (2.0 μM, ˜24×Km), and KPO4 (50 mM), pH 7.5, 25±2° C. Reactions were monitored via fluorescence change associated with the conversion of 1-HP to 1-HP-S (λex=325 nm, λem=370 nm). Keq for the 1-HP sulfonation reaction is −250. Given the reaction conditions outlined above, ≥99% of 1-HP is converted to 1-HP-S, and ˜0.4% of PAPS is converted to PAP at equilibrium. […] Reaction progress curves were analyzed to obtain initial-rate parameters as described previously (26,27).
(§2) Inhibition studies. Inhibition parameters were determined under conditions identical to those described above (see, Initial-Rate Studies) except that [1-HP] was increased to 5.0 μM (˜61×Km) and inhibitor concentration was varied between 0.20-20×Ki. Ki was obtained using a least-squares fit to the following partial inhibition equation (25,28): v=kcat·(Ki+(1/kcat inh)·[I])/(Ki+[I]), where kcat inh is enzyme turnover at saturating substrates and allosteric inhibitor.
as §1, with “(47).” for “(25).”, “˜250.” for “−250.”, “(48,49).” for “(26,27).”
as §2, with “(47,50): V/Vax=(Ki+α·[I])/(Ki+[I]),” for “(25,28): v=kcat·(Ki+(1/kcat inh)·[I])/(Ki+[I]),”, “α” for “kcat inh”, “is percentage of” for “is”, “turnover remaining” for “turnover”

Mouse (1D1) = Mouse (1D1) (Mus musculus, UniProt Q3UZZ6); experiment: Inhibition of SULT1A3 homologues in different species: Mouse; type: biochemical
Description: (§3) Compounds 12, 23 and 25 were also tested for Inhibition of SULT1A3 in different species.
(§4) Inhibition of SULT1A3 Homologues in Different Species. SULT1A3 is only expressed in humans and higher primates. SULT1D1 is the isoform expressed in dogs and rodents that sulfonates neurotransmitters and is most similar to SULT1A3. Three synthesized allosteres (12, 23, and 25) were tested against both 1A3 and 1D1 from different species in order to explore testing in animal models. […] Mice have been engineered such that their SULT1A1/2 enzymes have been knocked out and replaced with the human versions of those isoforms.

SULT1E1 = target: T2, SULT1E1 (Homo sapiens, UniProt P49888); experiment: SULT1E1 inhibition test; type: biochemical; conditions: at 50 uM
T2 sequence (P49888 1-294): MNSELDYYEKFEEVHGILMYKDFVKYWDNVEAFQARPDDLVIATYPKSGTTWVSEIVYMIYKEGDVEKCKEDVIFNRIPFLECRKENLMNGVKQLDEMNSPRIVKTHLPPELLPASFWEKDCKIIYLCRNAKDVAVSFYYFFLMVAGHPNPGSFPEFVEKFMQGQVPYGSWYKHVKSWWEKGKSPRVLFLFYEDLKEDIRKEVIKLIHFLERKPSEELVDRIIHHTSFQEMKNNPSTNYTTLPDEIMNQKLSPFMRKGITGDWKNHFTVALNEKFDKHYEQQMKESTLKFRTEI

Green Monkey (1A3) = Green Monkey (1A3) (Chlorocebus sabaeus, UniProt Z9LO20H8W3); experiment: Inhibition of SULT1A3 homologues in different species: Green Monkey; type: biochemical
Description: as §3, §4

Dog (1D1) = Dog (1D1) (Canis lupus familiaris, UniProt A0A8I3RXJ1); experiment: Inhibition of SULT1A3 homologues in different species: Dog; type: biochemical
Description: as §4, with “Compounds 12, 23 and 25 were also tested for Inhibition of SULT1A3 in different species. Inhibition” for “Inhibition”

SULT2A1 = target: T3, SULT2A1 (Homo sapiens, UniProt Q06520); experiment: SULT2A1 inhibition test; type: biochemical; conditions: at 50 uM
T3 sequence (Q06520 1-285): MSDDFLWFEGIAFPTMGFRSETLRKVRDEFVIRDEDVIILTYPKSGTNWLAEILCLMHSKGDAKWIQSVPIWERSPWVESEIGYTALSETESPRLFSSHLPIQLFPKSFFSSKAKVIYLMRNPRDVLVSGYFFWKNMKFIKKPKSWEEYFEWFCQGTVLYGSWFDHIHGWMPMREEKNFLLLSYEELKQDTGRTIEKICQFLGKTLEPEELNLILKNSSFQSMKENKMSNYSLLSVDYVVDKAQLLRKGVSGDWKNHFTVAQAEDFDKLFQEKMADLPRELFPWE

Rat (1D1) = target: T4, Rat (1D1) (Rattus norvegicus, UniProt G3V9R3); experiment: Inhibition of SULT1A3 homologues in different species: Rat; type: biochemical
T4 sequence (G3V9R3 1-295): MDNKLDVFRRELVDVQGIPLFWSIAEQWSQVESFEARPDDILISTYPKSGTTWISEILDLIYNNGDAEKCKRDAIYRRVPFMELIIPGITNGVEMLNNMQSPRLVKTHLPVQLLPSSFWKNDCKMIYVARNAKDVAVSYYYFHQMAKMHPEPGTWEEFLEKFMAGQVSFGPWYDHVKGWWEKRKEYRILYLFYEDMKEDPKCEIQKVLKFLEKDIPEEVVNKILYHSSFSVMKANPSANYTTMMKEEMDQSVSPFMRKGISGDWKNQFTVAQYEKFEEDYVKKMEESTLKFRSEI
Description: as §3, §4

Rhesus Macaque (1A3) = Rhesus Macaque (1A3) (Macaca mulatta, UniProt A0A5F7ZQH3); experiment: Inhibition of SULT1A3 homologues in different species: Rhesus Macaque; type: biochemical
Description: as §3, §4

SULT1A1 = SULT1A1 (Homo sapiens, UniProt P50225); experiment: SULT1A1 inhibition, 1-HP initial-rate assay; type: biochemical; conditions: ND = inhibition was not detected at 30 μM compound, parentheses one standard error
Description: as §2
as §2, with “(47,50): V/Vax=(Ki+α·[I])/(Ki+[I]),” for “(25,28): v=kcat·(Ki+(1/kcat inh)·[I])/(Ki+[I]),”, “α” for “kcat inh”, “is percentage of” for “is”, “turnover remaining” for “turnover”

[3] = read-out: Kd, determined by fluorescence titration

T1 sequence (P0DMM9 whole entry): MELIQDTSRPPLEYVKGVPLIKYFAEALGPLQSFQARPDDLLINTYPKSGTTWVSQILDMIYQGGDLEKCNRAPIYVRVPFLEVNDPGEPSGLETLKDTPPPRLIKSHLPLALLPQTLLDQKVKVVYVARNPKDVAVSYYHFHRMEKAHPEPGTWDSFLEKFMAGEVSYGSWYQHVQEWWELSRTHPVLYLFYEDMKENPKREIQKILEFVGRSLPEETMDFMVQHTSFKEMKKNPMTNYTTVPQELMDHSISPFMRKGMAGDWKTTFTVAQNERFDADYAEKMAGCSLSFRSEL
Dog (1D1), sequence (A0A8I3RXJ1 entry or part of it): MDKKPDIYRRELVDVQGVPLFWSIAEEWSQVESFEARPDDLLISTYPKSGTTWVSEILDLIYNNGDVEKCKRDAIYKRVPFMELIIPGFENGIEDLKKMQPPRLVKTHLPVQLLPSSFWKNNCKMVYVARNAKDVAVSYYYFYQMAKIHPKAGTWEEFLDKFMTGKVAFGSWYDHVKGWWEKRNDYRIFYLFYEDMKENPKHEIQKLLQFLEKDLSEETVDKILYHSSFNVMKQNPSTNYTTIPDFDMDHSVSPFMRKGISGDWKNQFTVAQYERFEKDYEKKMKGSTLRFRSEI
Mouse (1D1), sequence (Q3UZZ6 whole entry): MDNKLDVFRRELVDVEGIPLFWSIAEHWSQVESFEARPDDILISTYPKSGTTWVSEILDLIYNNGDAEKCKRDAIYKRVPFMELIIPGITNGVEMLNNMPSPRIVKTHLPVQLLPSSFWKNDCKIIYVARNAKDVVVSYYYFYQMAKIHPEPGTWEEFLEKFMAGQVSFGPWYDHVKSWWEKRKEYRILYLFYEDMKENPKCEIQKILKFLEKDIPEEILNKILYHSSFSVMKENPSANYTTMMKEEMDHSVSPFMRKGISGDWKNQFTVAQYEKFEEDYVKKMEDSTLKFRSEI
SULT1A1, sequence (P50225 whole entry): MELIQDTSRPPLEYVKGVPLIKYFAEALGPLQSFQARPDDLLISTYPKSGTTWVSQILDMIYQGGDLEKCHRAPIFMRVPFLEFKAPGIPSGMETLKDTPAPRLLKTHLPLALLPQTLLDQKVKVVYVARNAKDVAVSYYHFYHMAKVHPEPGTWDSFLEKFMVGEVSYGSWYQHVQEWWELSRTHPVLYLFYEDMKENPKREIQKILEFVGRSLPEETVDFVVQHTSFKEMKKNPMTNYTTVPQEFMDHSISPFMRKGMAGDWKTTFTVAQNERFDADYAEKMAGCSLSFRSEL
Green Monkey (1A3), sequence (Z9LO20H8W3 1-295): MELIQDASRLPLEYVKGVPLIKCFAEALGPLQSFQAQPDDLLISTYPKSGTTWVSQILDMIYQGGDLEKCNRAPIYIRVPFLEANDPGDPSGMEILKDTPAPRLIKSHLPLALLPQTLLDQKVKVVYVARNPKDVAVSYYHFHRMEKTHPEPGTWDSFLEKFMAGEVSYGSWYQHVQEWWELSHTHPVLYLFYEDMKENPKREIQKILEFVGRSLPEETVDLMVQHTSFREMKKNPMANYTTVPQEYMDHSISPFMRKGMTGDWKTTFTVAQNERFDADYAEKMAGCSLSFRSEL
Rhesus Macaque (1A3), sequence (A0A5F7ZQH3 1-295): as the sequence (Z9LO20H8W3 1-295) above, with A7T, V15M, C23Y, R230K, Y247F, A278E counted along it

4-Hydroxytamoxifen [Compound 4-Tam, reference compound]
Kd (SULT1A3 [1]; saturating PAP 0.50 mM, SULT 150 nM, read-out: Kd (+PAP)): 5400 nM

CC(C)c1ccc2cc(CO)ccc2n1 [Compound 1, (2-Isopropylquinolin-6-yl)methanol]
inhibition of SULT1A3 (in words) (SULT1A3 [2]): do not inhibit
Kd (SULT1A3 [1]; [3]): 160 nM

O=S(=O)(O)Oc1ccc2ccc3cccc4ccc1c2c34 [Compound 1-HP-S, reference compound]
Kd (SULT1A3 [1]; read-out: Kd, affinity of 1-HP-S for SULT1A3): 240000 ± 30000 nM

CC(C)CCc1ccc2cc(CO)ccc2n1 [Compound 2]
inhibition of SULT1A3 (in words) (SULT1A3 [2]): do not inhibit
Kd (SULT1A3 [1]; [3]): 87 nM

CC(C)Cc1ccc2cc(/C=C/C(N)=O)cnc2n1 [Compound 23, (E)-3-(7-Isobutylnaphthyridin-3-yl)acrylamide]
Mouse (1D1) % inh (Mouse (1D1)): 92 (3) %
Ki (Mouse (1D1); parentheses one standard error): 65 nM
affinity for SULT1A3 (in words) (SULT1A3 [2]): low nanomolar affinity
Ki (SULT1A3 [2]; ND = inhibition was not detected at 30 μM compound, parentheses one standard error, read-out: SULT1A3 Ki/μM): 0.0092 µM
Human (1A3) % inh (SULT1A3 [2]; parentheses one standard error): 97 (2) %
inhibition (SULT1A3 [2]; parentheses one standard error, read-out: SULT1A3 Enzyme Inhibition at Saturation/%): 96%
Ki (SULT1A3 [2]; standard error in neighbouring cell, read-out: Human (1A3) Ki): 0.0096 µM
inhibition at saturation (SULT1A3 [2]; text b218): almost complete inhibition
inhibition of SULT1E1 (SULT1E1): no inhibition was detected
Green Monkey (1A3) % inh (Green Monkey (1A3)): 91 (4) %
Ki (Green Monkey (1A3); parentheses one standard error): 72 nM
Dog (1D1) % inh (Dog (1D1)): 81 (4) %
Ki (Dog (1D1); standard error in neighbouring cell): 117 nM
inhibition of SULT2A1 (SULT2A1): no inhibition was detected
Rat (1D1) % inh (Rat (1D1)): 37 (4) %
Ki (Rat (1D1); parentheses one standard error): 270 nM
Rhesus Macaque (1A3) % inh (Rhesus Macaque (1A3)): 97 (2) %
Ki (Rhesus Macaque (1A3); parentheses one standard error): 12 nM
Ki (SULT1A1): 3.1 µM
inhibition (SULT1A1; read-out: SULT1A1 Enzyme Inhibition at Saturation/%): 61%
